Measurements: EPA's ToxRefDB 2

Legend:
mouse [1] = conditions: Subchronic oral toxicity in rodents, b6c3f1, Feed, dose end: 13 week, group: systemic, systemic / in life observation / body weight / body weight
mouse [2] = conditions: Combined chronic toxicity/carcinogenicity; b6c3f1; Oral; Feed; dose end: 103 week; group: systemic; systemic / in life observation / body weight / body weight
mouse [3] = conditions: Carcinogenicity; b6c3f1; Oral; Feed; dose end: 103 week; group: systemic; systemic / in life observation / body weight / body weight
rat [4] = conditions: Combined chronic toxicity/carcinogenicity, fischer, Oral, Feed, dose end: 103 week, group: systemic
mouse [5] = conditions: Prenatal developmental toxicity study, cd1, Oral, Gavage/Intubation, dose end: 15 GD
rat [6] = conditions: Prenatal developmental toxicity study, other, Oral, Gavage/Intubation, dose end: 15 GD
dog = conditions: Chronic toxicity; beagle; Oral; Feed; dose end: 12 month; group: systemic; systemic / in life observation / body weight / body weight + systemic / in life observation / clinical signs / inappetence + systemic / in …
rat [7] = conditions: Subchronic oral toxicity in rodents, fischer, Feed, dose end: 13 week, group: systemic, systemic / pathology microscopic / liver / vacuolization
rat [8] = conditions: Carcinogenicity; fischer; Oral; Feed; dose end: 103 week; group: systemic; systemic / pathology microscopic / pituitary gland / adenoma + systemic / pathology microscopic / pituitary gland / adenoma/carcinoma …
rat [9] = conditions: Subchronic oral toxicity in rodents, fischer, Gavage/Intubation, dose end: 13 week, group: systemic, systemic / hematology / anemia / anemia - macrocytic + systemic / hematology / erythrocyte (rbc) count differential / erythrocyte (rbc) + …
mouse [10] = conditions: Subchronic oral toxicity in rodents, b6c3f1, Gavage/Intubation, dose end: 13 week, group: systemic, systemic / hematology / methemoglobin / methemoglobin + systemic / pathology microscopic / bone marrow / hemosiderosis + systemic / …
[11] = systemic / pathology microscopic / liver / fatty change
[12] = systemic / pathology microscopic / pituitary gland / adenoma + systemic / pathology microscopic / adrenal gland / pheochromocytoma nos + …
[13] = group: developmental, systemic / in life observation / body weight / fetal weight
[14] = group: maternal, systemic / in life observation / body weight / dam weight + systemic / in life observation / clinical signs / abnormal respiratory sounds + …
[15] = group: maternal, systemic / in life observation / body weight / body weight gain + systemic / in life observation / clinical signs / fur (altered appearance…

CN(C)[C@@H]1C(=O)C(C(N)=O)=C(O)[C@@]2(O)C(=O)C3=C(O)c4c(O)cccc4[C@@](C)(O)[C@H]3[C@H](O)[C@@H]12.Cl [Oxytetracycline hydrochloride]
LEL (mouse [1]): 3750 mg/kg/day
LOAEL (mouse [1]): 7500 mg/kg/day
NEL (mouse [1]): 1880 mg/kg/day
NOAEL (mouse [1]): 3750 mg/kg/day
LEL (mouse [2]): 1400 mg/kg/day
LOAEL (mouse [2]): > 1400 mg/kg/day
NEL (mouse [2]): 650 mg/kg/day
NOAEL (mouse [2]): ≥ 1400 mg/kg/day
LEL (mouse [3]): 1370 mg/kg/day
LOAEL (mouse [3]): > 1370 mg/kg/day
NEL (mouse [3]): 663 mg/kg/day
NOAEL (mouse [3]): ≥ 1370 mg/kg/day
LEL (rat [4]; [11]): 1000 mg/kg/day
NEL (rat [4]; [11]): < 1000 mg/kg/day
LOAEL (rat [4]; [12]): > 2000 mg/kg/day
NOAEL (rat [4]; [12]): ≥ 2000 mg/kg/day
LEL (mouse [5]; [13]): 1320 mg/kg/day
LOAEL (mouse [5]; [13]): > 2100 mg/kg/day
NEL (mouse [5]; [13]): < 1320 mg/kg/day
NOAEL (mouse [5]; [13]): ≥ 2100 mg/kg/day
LEL (mouse [5]; group: maternal, systemic / in life observation / body weight / dam weight): 1670 mg/kg/day
LOAEL (mouse [5]; [14]): > 2100 mg/kg/day
NEL (mouse [5]; [14]): 1320 mg/kg/day
NOAEL (mouse [5]; [14]): ≥ 2100 mg/kg/day
LEL (rat [6]; [13]): 1200 mg/kg/day
LOAEL (rat [6]; [13]): 1200 mg/kg/day
NEL (rat [6]; [13]): < 1200 mg/kg/day
NOAEL (rat [6]; [13]): < 1200 mg/kg/day
LEL (rat [6]; [15]): 1200 mg/kg/day
LOAEL (rat [6]; [15]): > 1500 mg/kg/day
NEL (rat [6]; [15]): < 1200 mg/kg/day
NOAEL (rat [6]; [15]): ≥ 1500 mg/kg/day
LEL (dog): 125 mg/kg/day
LOAEL (dog): 125 mg/kg/day
NEL (dog): 50 mg/kg/day
NOAEL (dog): 50 mg/kg/day
LEL (rat [7]): 155 mg/kg/day
LOAEL (rat [7]): > 2500 mg/kg/day
NEL (rat [7]): < 155 mg/kg/day
NOAEL (rat [7]): ≥ 2500 mg/kg/day
LEL (rat [8]): 1250 mg/kg/day
LOAEL (rat [8]): > 2500 mg/kg/day
NEL (rat [8]): < 1250 mg/kg/day
NOAEL (rat [8]): ≥ 2500 mg/kg/day

Nc1cccc(Cl)c1 [3-Chloroaniline]
LEL (rat [9]): 10 mg/kg/day
LOAEL (rat [9]): 20 mg/kg/day
NEL (rat [9]): < 10 mg/kg/day
NOAEL (rat [9]): 10 mg/kg/day
LEL (mouse [10]): 10 mg/kg/day
LOAEL (mouse [10]): 40 mg/kg/day
NEL (mouse [10]): < 10 mg/kg/day
NOAEL (mouse [10]): 20 mg/kg/day
